Assay results: paper PMC3265250 (Chemotherapy Research and Practice, 2011)
Values after ≈ are worked out from the molar mass of the structure shown. Like-named read-outs stand apart in the source and are kept apart here.

What was measured:
S. aureus ATCC 6538P = test: MIC, microbroth dilution, referential strain ATCC 6538P; type: cell-based, Staphylococcus aureus; settings: Staphylococcus aureus, ATCC6538P; ATCC 6538P; microbroth dilution, MHB II, 5 × 10^5 CFU/mL, 18 h at 37°C, triplicate; read-out: MIC
Description: (§1) A total number of 24 SA strains were obtained from patients with erythrodermia and 3 reference SA ones from the American Type Culture Collection: 6538P ATCC, 9144 ATCC, and 25923 ATCC (Institute of Experimental Therapy, Wroclaw, Poland). […] Polypropylene 96-well plates (Sigma-Aldrich) were incubated for 18 h at 37°C. MIC was taken as the lowest drug concentration at which a noticeable growth was inhibited. […] The experiments were performed in triplicate.

S. aureus ATCC 9144 = test: MIC, microbroth dilution, referential strain ATCC 9144; type: cell-based, Staphylococcus aureus; settings: Staphylococcus aureus, ATCC9144; ATCC 9144; microbroth dilution, MHB II, 5 × 10^5 CFU/mL, 18 h at 37°C, triplicate; read-out: MIC
S. aureus ATCC 25923 = test: MIC, microbroth dilution, referential strain ATCC 25923; type: cell-based, Staphylococcus aureus; settings: Staphylococcus aureus, ATCC25923; ATCC 25923; microbroth dilution, MHB II, 5 × 10^5 CFU/mL, 18 h at 37°C, triplicate; read-out: MIC
Description: as §1

[1] = tested on: Superantigen negative S. aureus (10); settings: superantigen negative clinical isolates (10); more than 99.9% reduction of the initial inoculums, triplicate
[2] = tested on: Superantigen positive S. aureus (14); settings: superantigen positive clinical isolates (14), triplicate; for MBC Range: more than 99.9% reduction of the initial inoculums
[3] = tested on: Superantigen negative S. aureus (10); test: microbe, parasite or virus in culture; settings: Staphylococcus aureus; for MIC50 / MIC90 / MIC: 18 h; for MIC: read-out: MIC Range
[4] = tested on: Superantigen positive S. aureus (14); test: microbe, parasite or virus in culture; settings: Staphylococcus aureus; for MIC50 / MIC90 / MIC: 18 h; for MIC: read-out: MIC Range

| Structure (SMILES) | MIC (S. aureus ATCC 6538P) [µg/mL] | MIC (S. aureus ATCC 9144) [µg/mL] | MIC (S. aureus ATCC 25923) [µg/mL] | MBC Range [1] [mg/L] | MBC Range [2] [mg/L] | MIC50 [3] [µg/mL] | MIC90 [3] [µg/mL] | MIC [3] [µg/mL] | MIC90 ([3]; read-out: MICs 90%) [µg/mL] | MBC ([3]; read-out: MBC 50%) [µg/mL] | MBC ([3]; read-out: MBC 90%) [µg/mL] | MIC50 [4] [µg/mL] | MIC90 [4] [µg/mL] | MIC [4] [µg/mL] | MIC90 ([4]; read-out: MICs 90%) [µg/mL] | MBC ([4]; read-out: MBC 50%) [µg/mL] | MBC ([4]; read-out: MBC 90%) [µg/mL] | MIC Range ([2]; microbroth dilution, MHB II, 5 × 10^5 CFU/mL, 18 h at 37°C) [mg/L] |
| --- | --- | --- | --- | --- | --- | --- | --- | --- | --- | --- | --- | --- | --- | --- | --- | --- | --- | --- |
| O=C(N[C@H](CO)[C@H](O)c1ccc([N+](=O)[O-])cc1)C(Cl)Cl [Chloramphenicol, chloramphenicol] | 4 (≈ 12.4 µM) | 4 (≈ 12.4 µM) | 4 (≈ 12.4 µM) | 8 to 32 | 8 to 128 | 4 (≈ 12.4 µM) | 32 (≈ 99 µM) | 2 to 32 (≈ 6.19 to 99 µM) | 32 (≈ 99 µM) | 8 (≈ 24.8 µM) | 32 (≈ 99 µM) | 8 (≈ 24.8 µM) | 64 (≈ 198 µM) | 4 to 128 (≈ 12.4 to 396 µM) | 64 (≈ 198 µM) | 16 (≈ 49.5 µM) | 128 (≈ 396 µM) |  |
| O=C(O)c1cn(C2CC2)c2cc(N3CCNCC3)c(F)cc2c1=O [Ciprofloxacin, ciprofloxacin] | 1 (≈ 3.02 µM) |  | 1 (≈ 3.02 µM) |  |  |  |  |  |  |  |  |  |  |  |  |  |  |  |
| CCC[C@@H]1C[C@@H](C(=O)N[C@@H]([C@H]2O[C@H](SC)[C@H](O)[C@@H](O)[C@H]2O)[C@H](C)Cl)N(C)C1 [Clindamycin, clindamycin] | 4 (≈ 9.41 µM) | 2 (≈ 4.71 µM) | 2 (≈ 4.71 µM) | 64 to 128 | 16 to 512 | 32 (≈ 75.3 µM) | 32 (≈ 75.3 µM) | 16 to 64 (≈ 37.6 to 151 µM) | 32 (≈ 75.3 µM) | 32 (≈ 75.3 µM) | 64 (≈ 151 µM) | 64 (≈ 151 µM) | 512 (≈ 1200 µM) | 8 to 512 (≈ 18.8 to 1200 µM) | 512 (≈ 1200 µM) | 64 (≈ 151 µM) | 128 (≈ 301 µM) |  |
| CC[C@H]1OC(=O)[C@H](C)[C@@H](O[C@H]2C[C@@](C)(OC)[C@@H](O)[C@H](C)O2)[C@H](C)[C@@H](O[C@@H]2O[C@H](C)C[C@H](N(C)C)[C@H]2O)[C@](C)(O)C[C@@H](C)C(=O)[C@H](C)[C@@H](O)[C@]1(C)O [Erythromycin, erythromycin] | 1 (≈ 1.36 µM) | 1 (≈ 1.36 µM) | 1 (≈ 1.36 µM) |  | 4 to 512 | 0.5 (≈ 0.681 µM) | 0.5 (≈ 0.681 µM) | 0.25 to 64 (≈ 0.341 to 87.2 µM) | 0.5 (≈ 0.681 µM) | 1 (≈ 1.36 µM) | 2 (≈ 2.73 µM) | 1 (≈ 1.36 µM) | 256 (≈ 349 µM) |  | 256 (≈ 349 µM) | 8 (≈ 10.9 µM) | 128 (≈ 174 µM) | 0.25 to 512 |
| CC(=O)NC[C@H]1CN(c2ccc(N3CCOCC3)c(F)c2)C(=O)O1 [Linezolid, linezolid] | 0.5 (≈ 1.48 µM) | 1 (≈ 2.96 µM) | 0.5 (≈ 1.48 µM) |  |  | 1 (≈ 2.96 µM) | 1 (≈ 2.96 µM) | 0.5 to 2 (≈ 1.48 to 5.93 µM) | 1 (≈ 2.96 µM) |  |  | 1 (≈ 2.96 µM) | 2 (≈ 5.93 µM) | 0.5 to 2 (≈ 1.48 to 5.93 µM) | 2 (≈ 5.93 µM) |  |  |  |
| CO[C@H]1/C=C/O[C@@]2(C)Oc3c(C)c(O)c4c(O)c(c(/C=N/N5CCN(C)CC5)c(O)c4c3C2=O)NC(=O)/C(C)=C\C=C\[C@H](C)[C@H](O)[C@@H](C)[C@@H](O)[C@@H](C)[C@H](OC(C)=O)[C@@H]1C [Rifampicin, rifampicin] | 0.25 (≈ 0.304 µM) | 0.25 (≈ 0.304 µM) | 0.25 (≈ 0.304 µM) | 1 to 2 | 0.5 to 2 | 0.25 (≈ 0.304 µM) | 1 (≈ 1.22 µM) | 0.25 to 1 (≈ 0.304 to 1.22 µM) | 1 (≈ 1.22 µM) | 0.25 (≈ 0.304 µM) | 1 (≈ 1.22 µM) | 0.25 (≈ 0.304 µM) | 1 (≈ 1.22 µM) | 0.25 to 1 (≈ 0.304 to 1.22 µM) | 1 (≈ 1.22 µM) | 1 (≈ 1.22 µM) | 2 (≈ 2.43 µM) |  |
